Assays:
[1] = test system: NPR2; conditions: cantharidin 100 μM (Shuhaibar et al., 2017); cited from earlier work
[2] = test system: NPR2; assay: cGMP production in tibia growth plates using cGi500 FRET sensor; assay type: cell-based, mouse; conditions: for CNP-induced cGMP increase after FGF treatment: then FGF 80 min, newborn mouse tibia; for cGMP (CFP/YFP emission ratio from cGi500) on perfusion across the growth plate: newborn mouse tibia growth plate
Description: cGMP production in chondrocytes within intact growth plates was measured using tibias dissected from newborn mice (0-1 day old) that globally expressed one or two copies of the cGi500 FRET sensor, as previously described (Shuhaibar et al., 2017).Tibias were dissected and cultured overnight on Millicell membranes in BGJb medium with 0.1% bovine serum albumin, 100 units/ml of penicillin, and 100 μg/ml of streptomycin. In preparation for imaging, each tibia was slit to remove the tissue overlying the growth plate. Where indicated, the tibia was incubated in LB-100, cantharidin, or control medium, followed by addition of FGF18 (0.5 μg/ml+1 μg/ml heparin) or control medium containing heparin only. The tibia was then placed in a perfusion slide and the growth plate was imaged on the stage of a confocal microscope, as previously described (Shuhaibar et al., 2017).
NPR2 activity in chondrocytes of intact growth plates was measured as previously described, using mice expressing a FRET sensor for cGMP, cGi500 (Shuhaibar et al., 2017). Tibias were isolated from newborn mice, and the overlying tissue was excised to expose the growth plate for confocal imaging (Data not shown). When the NPR2 agonist C-type natriuretic peptide (CNP) was perfused across the growth plate, the CFP/YFP emission ratio from cGi500 increased, indicating an increase in cGMP, due to stimulation of the guanylyl cyclase activity of NPR2 (Data not shown).
To investigate if LB-100 counteracts the inactivation of NPR2 by FGF, we used the following protocol:Tibias expressing cGi500 were preincubated with solutions of 1, 5 or 10 μM LB-100 for 60 minutes. FGF was then added and the incubation was continued for an additional 80 minutes. Following these incubations, the tibia was placed in a perfusion slide for confocal imaging, and cGMP production by NPR2 was monitored by measuring the increase in CFP/YFP emission ratio in response to CNP.

[3] = target: T1, PPPS (Homo sapiens, UniProt P53041); conditions: in vitro, DiFMUP as substrate (D'Arcy et al., 2019); cited from earlier work
T1 sequence (P53041 1-499): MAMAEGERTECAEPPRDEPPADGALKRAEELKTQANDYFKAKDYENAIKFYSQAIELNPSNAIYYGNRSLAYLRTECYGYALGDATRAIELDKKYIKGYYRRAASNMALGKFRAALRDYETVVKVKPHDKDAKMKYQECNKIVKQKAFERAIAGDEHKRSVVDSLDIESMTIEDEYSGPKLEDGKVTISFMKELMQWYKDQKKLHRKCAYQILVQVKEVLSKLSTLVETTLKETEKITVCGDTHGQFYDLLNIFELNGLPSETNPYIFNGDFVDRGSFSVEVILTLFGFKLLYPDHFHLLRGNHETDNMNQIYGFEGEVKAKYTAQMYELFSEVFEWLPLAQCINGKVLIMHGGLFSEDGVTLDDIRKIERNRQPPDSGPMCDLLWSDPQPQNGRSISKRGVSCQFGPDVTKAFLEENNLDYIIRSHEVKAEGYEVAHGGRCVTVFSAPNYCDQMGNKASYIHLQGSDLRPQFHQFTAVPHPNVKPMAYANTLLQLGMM

[4] = target: PPP2 (Homo sapiens, UniProt P67775); conditions: in vitro, DiFMUP as substrate (D'Arcy et al., 2019); cited from earlier work
[5] = test system: NPR2; assay: Phos-tag gel electrophoresis / western blot of NPR2 in rib chondrocyte cultures; assay type: cell-based, mouse
Description: Rib cages were dissected from newborn (0-2 day old) mice, and trimmed to remove the skin, spinal cord, and soft tissue around the sternum and ribs. Non-chondrocyte tissue was digested away by incubating the rib cages in 2 mg/ml pronase in PBS for one hour in a shaking water bath at 37° C., and then incubated in 3 mg/ml collagenase D in medium for one hour. After washing, the rib cages were transferred to a dish with fresh collagenase D and incubated for 5-6 hours, with trituration at 2 hours, to release the chondrocytes. The isolated cells were passed through a 40 um nylon cell strainer, resuspended in DMEM/F12 medium with 10% fetal bovine serum, 100 units/ml of penicillin, and 100 μg/m1 of streptomycin, and plated in 35 mm tissue culture dishes, at a cell density corresponding to one newborn mouse per plate. The cells were cultured for 3 days, at which point they were ˜75-90% confluent, then washed with PBS and incubated in serum-free medium for 18 hours. The cells were then incubated in LB-100 (10 μM), or control medium, followed by addition of FGF18 (0.5 ug/ml+1 μg/ml heparin) or control medium containing heparin only.
At end of the incubation period, dishes were washed in PBS and cells lysed in 250 μl of 1% SDS containing 10 mM sodium fluoride, 1 μM microcystin, and Roche protease inhibitor cocktail. Protein content was determined by a BCA assay. […]

[6] = test system: PPP1; conditions: same conditions, DiFMUP; Richard Honkanen, personal communication; cited from earlier work
[7] = test system: Fgfr3^Y367C/+ femurs; assay: Ex vivo culture of fetal femurs from Fgfr3^Y367C/+ mice (growth in length and area); assay type: cell-based, mouse; conditions: E16.5 Fgfr3^Y367C/+ femurs, 6 day culture; BMN-111 0.1 μM, LB-100 10 μM
Description: (§1) FIG. 1. LB-100 and BMN-111 act synergistically to stimulate growth in fetal femurs from Fgfr3^Y367C/+ mice.(A) Diagram showing sites of action of LB-100 and BMN-111. (B) Representative photographs of fetal femurs from E16.5 day old Fgfr3+/+ (wildtype) and Fgfr3^Y367+ mice, before (D0) and after a 6 day (D6) culture with the indicated treatments. […] For all experiments, the concentration of BMN-111 was 0.1 μM, and the concentration of LB-100 was 10 μM. Symbols in graphs C-E indicate individual bones (n=4−10). Bars represent mean ±SEM and data were analyzed by unpaired two-tailed t-tests. Asterisks indicate significant differences (p<0.05) between indicated groups; n.s. indicates no significant difference (p>0.05).
(§2) Femurs were cultured ex vivo, as described previously (Jonquoy et al., 2012; Lorget et al., 2012). The left femur was cultured in the presence of LB-100 (10 μM), BMN-111 (0.1 μM), or LB-100 (10 μM)+BMN-111 (0.1 μM), and compared with the non-treated right femur. The bone's length was measured on day 0 (D0) and day 6 (D6). Images were captured with an Olympus SZX12 stereo microscope and quantified using cellSens software (Olympus). The results were expressed as the increase in femur length or area (D6-D0) in the presence or absence of LB-100, BMN-111, or LB-100+BMN-111.

[8] = Chung et al., 2017; cited from earlier work
[9] = test system: Fgfr3+/+ femurs; assay: Ex vivo culture of fetal femurs from Fgfr3+/+ mice (growth in length and area); assay type: cell-based, mouse; conditions: BMN-111 0.1 μM, LB-100 10 μM, 6 day culture
Description: as §1, §2

[10] = test system: growth plates of Fgfr3^Y367C/+ femurs; assay: Histology and immunohistochemistry of growth plates of ex vivo cultured Fgfr3^Y367C/+ femurs; assay type: cell-based, mouse
Description: FIG. 2. Dual action of LB-100 and BMN-111 improves chondrocyte differentiation in growth plates of ex-vivo cultured Fgfr3^Y367C/+ femurs. Mean area of individual hypertrophic chondrocytes in proximal growth plates of femurs treated (n=4−6 bones measured for each condition, with 54-137 cells measured for each bone). Data were analyzed by one-way ANOVA followed by the Holm-Sidak multiple comparison test (*p<0.05, **p<0.01, ****p<0.0001).
Fetal femur (E16.5) explants were fixed in 4% paraformaldehyde, decalcified with EDTA (0.4 M), and embedded in paraffin. Serial 5 μm sections were stained with hematoxylin-eosin-safran (HES) reagent, using standard protocols. For immunohistochemical assessment, sections were labeled with the following antibodies and a Dako Envision Kit: anti-COL X (BIOCYC, N.2031501005; 1:50 dilution), anti-phosphorylated ERK1-2 ([…]) (Cell Signaling Technology, #4370; 1:100 dilution), and anti-S0X9 (polyclonal antibody, Santa Cruz Biotechnology Inc., catalog D0609; dilution 1:75). Images were captured with an Olympus PD70-IX2-UCB microscope and quantified using cellSens software.
We measured the total area occupied by chondrocytes within the whole growth plate and the area occupied by COLX-positive chondrocytes. The area for proliferating chondrocytes was calculated by subtracting the COLX-positive area from the whole growth plate area.

[11] = test system: children 5 to 14 years of age with achondroplasia; conditions: for up to 42 months; Savarirayan et al., 2019; cited from earlier work

Chain of PPP2 (P67775 whole entry): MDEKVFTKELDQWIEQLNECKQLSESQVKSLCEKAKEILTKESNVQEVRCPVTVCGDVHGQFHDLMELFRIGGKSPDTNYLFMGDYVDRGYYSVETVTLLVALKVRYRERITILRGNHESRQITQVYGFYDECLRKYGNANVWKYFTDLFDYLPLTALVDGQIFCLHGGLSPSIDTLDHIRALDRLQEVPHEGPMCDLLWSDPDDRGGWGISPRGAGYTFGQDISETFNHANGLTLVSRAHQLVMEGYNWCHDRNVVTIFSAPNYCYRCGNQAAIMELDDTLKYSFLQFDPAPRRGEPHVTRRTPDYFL

## C[C@@]12C(=O)OC(=O)[C@]1(C)[C@H]1CC[C@@H]2O1 [cantharidin]
[1]
  Inactivation of NPR2 in growth plate chondrocytes by FGF: inhibits the inactivation of NPR2 in growth plate chondrocytes by FGF

## CN1CCN(C(=O)C2C3CCC(O3)C2C(=O)O)CC1 (stereo not drawn) [LB-100, 3-(4-methylpiperazine-1-carbonyl)-7-oxabicyclo[2.2.1]heptane-2-carboxylic acid]
[2]; 1 μM LB-100 preincubation 60 min
  CNP-induced cGMP increase after FGF treatment: had no effect
[2]; 5 μM LB-100 equivalent to 10 μM cantharidin
  Effectiveness in counteracting NPR2 inactivation by FGF compared with cantharidin: more effective than cantharidin
[2]; 5 μM LB-100 preincubation 60 min
  CNP-induced cGMP increase after FGF treatment: enhanced
[2]; 10 μM LB-100, confocal microscopy
  Chondrocyte morphology in live growth plate (toxicity): no visible change in chondrocyte morphology
[2]; 10 μM LB-100 preincubation 60 min
  CNP-induced cGMP increase after FGF treatment: enhanced
[3]
  IC50: 1.82 ± 0.093 µM
[4]
  IC50: 0.39 ± 0.013 µM
[5]; 1 hour incubation with 10 μM LB-100
  Cell morphology of rib chondrocytes: did not cause any visible change in cell morphology
[5]; preincubation with 10 μM LB-100, primary rib chondrocytes
  NPR2 dephosphorylation in response to FGF: only partial
[6]
  IC50: 1.8 ± 0.022 µM
[7]
  Mean rate of increase in bone length relative to vehicle/untreated bones (growth rate ratio): 1.04
  Rate of increase of total bone and cartilage area relative to control (growth rate ratio): 1.40
[8]
  Toxicity in phase I clinical trial: little toxicity

## [Cyc(23,39)]H2NPGQEHPNARKYKGANKKGLSKGCFGLKLDRIGSMSGLGC—OH [BMN-111]
[9]
  Rate of bone growth (length and area): increased the rate of bone growth
[2]; BMN-111 0.1 μM
  NPR2 activity in growth plate chondrocytes: stimulated NPR2 activity
[10]; COLX immunostaining, ex vivo cultured femurs
  Size of Fgfr3^Y367C/+ hypertrophic chondrocytes: increased the size
[10]; Fgfr3^Y367C/+ femurs, average
  Increase of total proliferative growth plate area of the femur over vehicle: 20%
[11]
  Annualized growth velocity in phase 2: sustained increase in annualized growth velocity
[7]
  Mean rate of increase in bone length relative to vehicle/untreated bones (growth rate ratio): 1.77
  Rate of increase of total bone and cartilage area relative to control (growth rate ratio): 1.51

## ANP: A-type natriuretic peptide, which activates the NPR1 guanylyl cyclase
[2]
  cGMP (CFP/YFP emission ratio from cGi500) on perfusion across the growth plate: did not increase cGMP

## CCN(CC)/[N+]([O-])=N/O [DEA/NO]
[2]
  cGMP (CFP/YFP emission ratio from cGi500) on perfusion across the growth plate: did not increase cGMP

B1: FGF18: fibroblast growth factor used with heparin to activate FGF receptor (protein, UniProt O76093 28-207, looked up)
Fibroblast growth factor 18: EENVDFRIHVENQTRARDDVSRKQLRLYQLYSRTSGKHIQVLGRRISARGEDGDKYAQLLVETDTFGSQVRIKGKETEFYLCMNRKGKLVGKPDGTSKECVFIEKVLENNYTALMSAKYSGWYVGFTKKGRPRKGPKTRENQQDVHFMKRYPKGQPELQKPFKYTTVTKRSRRIRPTHPA
[2]; FGF18 0.5 μg/ml + 1 μg/ml heparin
  cGMP increase in response to CNP perfusion after exposure to FGF18: suppressed the cGMP increase in response to CNP perfusion
